Results on 5 molecules are retold here after ChEMBL document CHEMBL1201862, “PubChem BioAssay data set” (2004).

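Five concentrations, 48 hours, 96-well plates. Abbreviation: GI50, concentration required for 50% inhibition of growth.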 Activity calls are given as the source filed them. Rule as the data show it: active = GI50 up to about 1.1 µM and inactive = higher.

Holding throughout (experiment): inhibition of tumour cell growth, NCI panel, 48 h
Assay [1] relates to HCC 2998.
For assay [2], the system named is SNB-75.
Assay [3] concerns HCT-15.
The test system of assay [4] is BT-549.
Assay [5] deals with SF-268.
In assay [6] the test system is M14.
Assay [7] concerns OVCAR-3.
Assay [8] concerns SNB-19.
Assay [9] relates to NCI-H23.
Assay [10] has as its system EKVX.
Assay [11] relates to KM12.
In assay [12] the test system is 786-0.
Assay [13] deals with SK-MEL-2.
For assay [14], the system named is CAKI-1.
Assay [15] relates to A498.
For assay [16], the system named is NCI-H226.
Assay [17] concerns ACHN.
The subject of assay [18] is MDA-MB-435.
For assay [19], the system named is SK-OV-3.
Assay [20] concerns UACC-257.

On to `COC1CC(OC2CCC3(C)C(=CCC4C3C(OC(C)=O)C(OC(=O)CC(C)C)C3(C)C(C(C)=O)CCC43O)C2)OC(C)C1OC1CC(OC)C(OC2CC(OC)C(OC3OC(C)C(O)C(OC)C3O)C(C)O2)C(C)O1` (stereo not given), for which the GI50 in assay [1] is 24.4 µM (inactive); in [2], 24.4 µM (inactive); in assay [3], 27.3 µM; in assay [4], 24.5 µM (inactive); in assay [5], 54.1 µM (inactive); in assay [6] it was 38.7 µM (inactive). Besides, the GI50 in assay [7] is 43.9 µM (inactive); in assay [8], 86.5 µM (inactive); in assay [9], 34 µM (inactive); in assay [10], 34.8 µM (inactive); in assay [11] it was 33.1 µM (inactive); in assay [12], 24.9 µM (inactive). Besides, the GI50 in assay [13] is 24.7 µM (inactive); in assay [14], 44 µM (inactive); in assay [15], > 100 µM (inactive); in assay [16] it was 30.5 µM (inactive); in assay [17] it was 31.6 µM (inactive); in [18] it was 25.1 µM (inactive). Moreover, the GI50 in assay [19] is 51.1 µM (inactive); in [20], 28.8 µM (inactive).
`NC1CCCCC1.O=P(O)(O)C(O)/C=C/c1ccccc1` (stereo not given): the GI50 was > 100 µM (inactive) in assay [1]; > 100 µM (inactive) in [2]; greater than 100 µM in assay [3]; > 100 µM (inactive) in [4]; > 100 µM (inactive) in [5]; > 100 µM (inactive) in assay [6]. Also, the GI50 in [7], in [8], in [9], in [10], in assay [11] and in assay [12] was > 100 µM (inactive) throughout. Besides, the GI50 in [13], in [14], in [15], in assay [16], in assay [17] and in assay [18] was > 100 µM (inactive) each time. Also, the GI50 in [19] and in assay [20] was > 100 µM (inactive) each time.
`c1ccc(/N=C2\c3ccccc3CN2c2ccccn2)nc1`: the GI50 in assay [1] is 37.8 µM (inactive); in assay [2], 94.8 µM (inactive); in [3], greater than 100 µM; in assay [4] it was > 100 µM (inactive); in [5] it was > 100 µM (inactive); in assay [6] it was > 100 µM (inactive). For the same molecule, the GI50 in assay [7] is > 100 µM (inactive); in [8] it was > 100 µM (inactive); in [9], 71.9 µM (inactive); in assay [10], > 100 µM (inactive); in assay [11], > 100 µM (inactive); in [12], > 100 µM (inactive). Besides, the GI50 in assay [13], in assay [14], in assay [15], in [16], in assay [17] and in assay [18] was > 100 µM (inactive) each time. The GI50 in [19] and in [20] was > 100 µM (inactive) in each case.
Take `Brc1ccc2c(c1)-c1nc3nc4c(cc3cc1CC2)CCc1ccc(Br)cc1-4`: the GI50 in assay [1] was > 100 µM (inactive); in assay [2], > 100 µM (inactive); in assay [3], greater than 100 µM; in [4], > 100 µM (inactive); in assay [5], > 100 µM (inactive); in assay [6], > 100 µM (inactive). Besides, the GI50 is > 100 µM (inactive) in [7]; > 100 µM (inactive) in assay [8]; > 100 µM (inactive) in [9]; > 100 µM (inactive) in [10]; 62.7 µM (inactive) in assay [11]; > 100 µM (inactive) in assay [12]. Besides, the GI50 was > 100 µM (inactive) in assay [13]; > 100 µM (inactive) in assay [14]; > 100 µM (inactive) in [15]; > 100 µM (inactive) in assay [16]; > 100 µM (inactive) in assay [17]; 5.65 µM (inactive) in [18]. Further, the GI50 in assay [19] and in assay [20] was > 100 µM (inactive) in each case.
Take `Oc1ccc(Cl)cc1C1=NC(NCNC2=NC(c3ccccc3)CC(c3cc(Cl)ccc3O)=N2)=NC(c2ccccc2)C1` (stereo not given): the GI50 in assay [1] is > 100 µM (inactive); in assay [2], > 100 µM (inactive); in assay [3] it was 43.4 µM; in assay [4], > 100 µM (inactive); in [5] it was 97.9 µM (inactive); in assay [6], > 100 µM (inactive). In addition, the GI50 is 60.1 µM (inactive) in assay [7]; > 100 µM (inactive) in [8]; > 100 µM (inactive) in [9]; > 100 µM (inactive) in [10]; > 100 µM (inactive) in [11]; > 100 µM (inactive) in assay [12]. The GI50 in assay [13] is > 100 µM (inactive); in assay [14] it was 94.2 µM (inactive); in [15] it was > 100 µM (inactive); in assay [16] it was > 100 µM (inactive); in assay [17], 43.6 µM (inactive); in assay [18], 47.9 µM (inactive). For the same molecule, the GI50 in assay [19] and in [20] was > 100 µM (inactive) throughout.
